In article PMC9021288 (Nature Communications, 2022):
Where two headings read alike, the source gives them in different places.

Test system: TA98, TA100, TA102, TA1535, TA1537
Method: Safety studies were performed by commercial services using their standard protocols. […] Genotoxicity was investigated using the Ames test (Bacterial Reverse Mutation Assay) (Covance Laboratories Ltd, North Yorkshire, England). In vitro mammalian cell micronucleus screening assay was studied in human peripheral blood lymphocytes (BioReliance Corporation, Rockville, USA). Cardiotoxicity was determined against the hERG channel in an automated patch clamp assay using the Qpatch or against the hNaV 1.5, hKV 1.5 and hCaV 1.2 using a manual patch-clamp technique (Metrion Biosciences, Cambridge, UK). Cytotoxicity in human and rat primary hepatocytes was assessed using the CellTiter-Blue assay performed by commercial services (KaLy-Cell). The viability of HepG2 cells was monitored through the addition of 1 mM resazurin. Following 6 h incubation, the relative amount of reduced resazurin was detected in a fluorimeter and compared to the assay controls (vehicle: 0.1% DMSO and positive control: 10 µM puromycin).

C[C@@H](CNC(=O)[C@H](O)C(C)(C)CO)NC(=O)c1cc(F)c(F)cc1F [MMV693183]
Fold Increase (TA98, +S-9, 5 ug/plate): 1.1
Mean (Revertant Numbers Per Plate) (TA98, +S-9, 5 ug/plate): 36.3
Fold Increase (TA98, +S-9, 16 ug/plate): 1.1
Mean (Revertant Numbers Per Plate) (TA98, +S-9, 16 ug/plate): 37
Fold Increase (TA98, +S-9, 50 ug/plate): 1.2
Mean (Revertant Numbers Per Plate) (TA98, +S-9, 50 ug/plate): 39.7
Fold Increase (TA98, +S-9, 160 ug/plate): 1.1
Mean (Revertant Numbers Per Plate) (TA98, +S-9, 160 ug/plate): 36.7
Fold Increase (TA98, +S-9, 500 ug/plate): 1.3
Mean (Revertant Numbers Per Plate) (TA98, +S-9, 500 ug/plate): 42.3
Fold Increase (TA98, +S-9, 1600 ug/plate): 1
Mean (Revertant Numbers Per Plate) (TA98, +S-9, 1600 ug/plate): 32.3
Fold Increase (TA98, +S-9, 5000 ug/plate): 0.8
Mean (Revertant Numbers Per Plate) (TA98, +S-9, 5000 ug/plate): 26.3
Fold Increase (TA98, -S-9, 5 ug/plate): 0.8
Mean (Revertant Numbers Per Plate) (TA98, -S-9, 5 ug/plate): 22.3
Fold Increase (TA98, -S-9, 16 ug/plate): 1.1
Mean (Revertant Numbers Per Plate) (TA98, -S-9, 16 ug/plate): 29.7
Fold Increase (TA98, -S-9, 50 ug/plate): 0.9
Mean (Revertant Numbers Per Plate) (TA98, -S-9, 50 ug/plate): 26.3
Fold Increase (TA98, -S-9, 160 ug/plate): 0.8
Mean (Revertant Numbers Per Plate) (TA98, -S-9, 160 ug/plate): 23.7
Fold Increase (TA98, -S-9, 500 ug/plate): 0.7
Mean (Revertant Numbers Per Plate) (TA98, -S-9, 500 ug/plate): 20.3
Fold Increase (TA98, -S-9, 1600 ug/plate): 0.8
Mean (Revertant Numbers Per Plate) (TA98, -S-9, 1600 ug/plate): 22.7
Fold Increase (TA98, -S-9, 5000 ug/plate): 1
Mean (Revertant Numbers Per Plate) (TA98, -S-9, 5000 ug/plate): 26.7
difference in revertant numbers vs control (TA98, TA100): < 2 fold
Fold Increase (TA100, +S-9, 5 ug/plate): 0.9
Mean (Revertant Numbers Per Plate) (TA100, +S-9, 5 ug/plate): 107.3
Fold Increase (TA100, +S-9, 16 ug/plate): 1
Mean (Revertant Numbers Per Plate) (TA100, +S-9, 16 ug/plate): 122.7
Fold Increase (TA100, +S-9, 50 ug/plate): 1.1
Mean (Revertant Numbers Per Plate) (TA100, +S-9, 50 ug/plate): 128.3
Fold Increase (TA100, +S-9, 160 ug/plate): 1
Mean (Revertant Numbers Per Plate) (TA100, +S-9, 160 ug/plate): 114.7
Fold Increase (TA100, +S-9, 500 ug/plate): 1.1
Mean (Revertant Numbers Per Plate) (TA100, +S-9, 500 ug/plate): 135
Fold Increase (TA100, +S-9, 1600 ug/plate): 0.9
Mean (Revertant Numbers Per Plate) (TA100, +S-9, 1600 ug/plate): 104
Fold Increase (TA100, +S-9, 5000 ug/plate): 1
Mean (Revertant Numbers Per Plate) (TA100, +S-9, 5000 ug/plate): 115.7
Fold Increase (TA100, -S-9, 5 ug/plate): 1.1
Mean (Revertant Numbers Per Plate) (TA100, -S-9, 5 ug/plate): 99.3
Fold Increase (TA100, -S-9, 16 ug/plate): 1.1
Mean (Revertant Numbers Per Plate) (TA100, -S-9, 16 ug/plate): 94
Fold Increase (TA100, -S-9, 50 ug/plate): 1.2
Mean (Revertant Numbers Per Plate) (TA100, -S-9, 50 ug/plate): 108.3
Fold Increase (TA100, -S-9, 160 ug/plate): 1
Mean (Revertant Numbers Per Plate) (TA100, -S-9, 160 ug/plate): 86.3
Fold Increase (TA100, -S-9, 500 ug/plate): 1.1
Mean (Revertant Numbers Per Plate) (TA100, -S-9, 500 ug/plate): 93
Fold Increase (TA100, -S-9, 1600 ug/plate): 1.2
Mean (Revertant Numbers Per Plate) (TA100, -S-9, 1600 ug/plate): 102
Fold Increase (TA100, -S-9, 5000 ug/plate): 1.1
Mean (Revertant Numbers Per Plate) (TA100, -S-9, 5000 ug/plate): 93
difference in revertant numbers vs control (TA102): < 1.5 fold
Fold Increase (TA102, +S-9, 5 ug/plate): 1.3
Mean (Revertant Numbers Per Plate) (TA102, +S-9, 5 ug/plate): 285
Fold Increase (TA102, +S-9, 16 ug/plate): 1.3
Mean (Revertant Numbers Per Plate) (TA102, +S-9, 16 ug/plate): 295.7
Fold Increase (TA102, +S-9, 50 ug/plate): 1.3
Mean (Revertant Numbers Per Plate) (TA102, +S-9, 50 ug/plate): 295
Fold Increase (TA102, +S-9, 160 ug/plate): 1.3
Mean (Revertant Numbers Per Plate) (TA102, +S-9, 160 ug/plate): 298.7
Fold Increase (TA102, +S-9, 500 ug/plate): 1.3
Mean (Revertant Numbers Per Plate) (TA102, +S-9, 500 ug/plate): 283
Fold Increase (TA102, +S-9, 1600 ug/plate): 1.1
Mean (Revertant Numbers Per Plate) (TA102, +S-9, 1600 ug/plate): 257
Fold Increase (TA102, +S-9, 5000 ug/plate): 0.8
